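1) Cells in 96-well plates. 2) Compound, 48 h, 5 concentrations. 3) Linear interpolation between surrounding doses. 4) Unreached endpoint = highest concentration. At the GI50, growth is halved.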 Calls of active or inactive are those of the source. No stated cut-off is given here; in the data, active = GI50 up to about 1.1 µM and inactive = higher.
Assays:
Assay in all cases: DTP human tumour cell line panel, 48 h
[1] = tested on: DLD-1
[2] = tested on: DMS-114
[3] = tested on: HOP-18
[4] = tested on: KM-20L2
[5] = tested on: LXFL 529
[6] = tested on: M19-MEL
[7] = tested on: RXF 631
[8] = tested on: SNB-78
[9] = tested on: XF498

In the case of CN(C)NC1=C([N+](=O)[O-])C=NN(c2ccccc2)C1, the GI50 [1] is reported as 1.83 µM (inactive), the GI50 [2] is reported as 1.84 µM (inactive) and the GI50 [3] is reported as 1.81 µM (inactive). For the same molecule, the GI50 [4] was 1.9 µM (inactive), the GI50 [5] was 1.65 µM (inactive) and the GI50 [6] was 1.81 µM (inactive). The GI50 [7] was 1.53 µM (inactive), the GI50 [8] was 2.17 µM (inactive) and the GI50 [9] was 2.36 µM (inactive).
With COc1cc(C2c3cc4c(cc3[C@H](OCCN(C)C)[C@@H]3COC(=O)C23)OCO4)cc(OC)c1O (stereo partly specified) the GI50 [1] was 0.805 µM (active), the GI50 [3] was 0.27 µM (active) and the GI50 [4] was 0.364 µM (active). For the same molecule, the GI50 [5] was 2.02 µM (inactive), the GI50 [6] was 0.373 µM (active) and the GI50 [7] was 0.0724 µM (active). The GI50 [8] was 3.83 µM (inactive) and the GI50 [9] was 0.115 µM (active).
CN(C)CCNC(=O)c1cccc2c1nc(-c1ccccn1)c1ccccc12 was tested, and the GI50 [1] was 11.9 µM (inactive), the GI50 [2] was 18.3 µM (inactive) and the GI50 [3] was 21.4 µM (inactive). The GI50 [6] was 18.1 µM (inactive) and the GI50 [8] was 25.3 µM (inactive).
With COc1ccc(OC)c(NC(=O)CCC/C(CC(=O)c2ccc(O)c(OC)c2)=N\NC(=O)C[N+](C)(C)C)c1 the GI50 [1] was > 100 µM (inactive), the GI50 [2] was > 100 µM (inactive) and the GI50 [3] was > 100 µM (inactive). The GI50 [4] was > 100 µM (inactive), the GI50 [5] was > 100 µM (inactive) and the GI50 [6] was > 100 µM (inactive). For the same molecule, the GI50 [7] was > 100 µM (inactive) and the GI50 [9] was > 100 µM (inactive).
For C#Cc1cccc(N2C(=O)CC(=P(c3ccccc3)(c3ccccc3)c3ccccc3)C2=O)c1, the GI50 [1] was > 100 µM (inactive), the GI50 [2] was 19.9 µM (inactive) and the GI50 [5] was 11.8 µM (inactive). The GI50 [6] was 42.9 µM (inactive), the GI50 [8] was > 100 µM (inactive) and the GI50 [9] was 0.405 µM (active).
With Cc1cc(NS(=O)(=O)c2ccc(Nc3c4ccccc4nc4c(C(=O)Nc5ccc(S(=O)(=O)N=C(N)N)cc5)ccc(Cl)c34)cc2)no1 the GI50 [1] was 47.3 µM (inactive), the GI50 [2] was 27.1 µM (inactive) and the GI50 [3] was 16.4 µM (inactive). The GI50 [4] was 98.4 µM (inactive), the GI50 [5] was 31.3 µM (inactive) and the GI50 [6] was 39.8 µM (inactive). The GI50 [8] was 23.4 µM (inactive) and the GI50 [9] was 31.4 µM (inactive).
In the case of CC(=O)O[C@H]1C(=O)[C@@]2(C)C([C@H](OC(=O)c3ccccc3)[C@]3(O)C[C@H](OC(=O)[C@H](O)[C@@H](NC(=O)c4ccc(Cl)cc4)c4ccccc4)C(C)=C1C3(C)C)C1(OC(C)=O)CO[C@@H]1C[C@@H]2O (stereo partly specified), the GI50 [1] is reported as 0.0222 µM (active), the GI50 [2] is reported as < 0.01 µM (active) and the GI50 [4] is reported as < 0.01 µM (active). For the same molecule, the GI50 [5] was < 0.01 µM (active), the GI50 [6] was < 0.01 µM (active) and the GI50 [9] was 0.0303 µM (active).
CC1CC(C)C(=O)C(C(=O)CC2CC(=O)NC2=O)C1 (stereo unspecified) was tested, and the GI50 [1] was > 100 µM (inactive), the GI50 [2] was > 100 µM (inactive) and the GI50 [3] was > 100 µM (inactive). For the same molecule, the GI50 [4] was > 100 µM (inactive), the GI50 [5] was > 100 µM (inactive) and the GI50 [6] was > 100 µM (inactive). For the same molecule, the GI50 [7] was 72.6 µM (inactive), the GI50 [8] was > 100 µM (inactive) and the GI50 [9] was > 100 µM (inactive).
With Cc1c(CCCl)c(Cl)n2c(nc3ccccc32)c1C#N the GI50 [1] was 1.12 µM (active), the GI50 [2] was 1.13 µM (inactive) and the GI50 [3] was 1.51 µM (inactive). The GI50 [4] was 0.641 µM (active), the GI50 [5] was 0.459 µM (active) and the GI50 [6] was 4.21 µM (inactive). For the same molecule, the GI50 [7] was 0.568 µM (active) and the GI50 [8] was 1.77 µM (inactive).
With COc1cc(Br)c(/C=N/N=C(\N)NO)cc1OC the GI50 [1] was 25.9 µM (inactive), the GI50 [2] was 12.4 µM (inactive) and the GI50 [3] was 4.72 µM (inactive). The GI50 [4] was 5.73 µM (inactive), the GI50 [5] was 10.9 µM (inactive) and the GI50 [6] was 19.6 µM (inactive). The GI50 [7] was 11.6 µM (inactive), the GI50 [8] was 73.3 µM (inactive) and the GI50 [9] was 13.6 µM (inactive).
For [O-][S+]1CSCS1 (stereo unspecified), the GI50 [1] was > 100 µM (inactive), the GI50 [2] was > 100 µM (inactive) and the GI50 [3] was > 100 µM (inactive). The GI50 [4] was > 100 µM (inactive), the GI50 [5] was > 100 µM (inactive) and the GI50 [6] was > 100 µM (inactive). The GI50 [7] was 85.9 µM (inactive), the GI50 [8] was 91.8 µM (inactive) and the GI50 [9] was > 100 µM (inactive).
With COC(=O)c1c(C)oc2ccc(OC(C)=O)cc12 the GI50 [2] was > 100 µM (inactive), the GI50 [4] was > 100 µM (inactive) and the GI50 [6] was > 100 µM (inactive). The GI50 [8] was > 100 µM (inactive).
Cc1cc([N+](=O)[O-])c(S(=O)(=O)c2ccccc2)c([N+](=O)[O-])c1 was tested, and the GI50 [1] was 4 µM (inactive), the GI50 [2] was 3.14 µM (inactive) and the GI50 [3] was 16.1 µM (inactive). The GI50 [4] was 17.9 µM (inactive), the GI50 [5] was 3.66 µM (inactive) and the GI50 [6] was 11.7 µM (inactive). For the same molecule, the GI50 [7] was 38.6 µM (inactive), the GI50 [8] was 17.2 µM (inactive) and the GI50 [9] was 4.35 µM (inactive).
In the case of COc1ccc(N(C)Sc2ccccc2)cc1, the GI50 [1] is reported as 47.5 µM (inactive), the GI50 [2] is reported as 36.6 µM (inactive) and the GI50 [3] is reported as 68.4 µM (inactive). For the same molecule, the GI50 [4] was 55.6 µM (inactive), the GI50 [5] was 45.3 µM (inactive) and the GI50 [6] was 69 µM (inactive). The GI50 [8] was > 100 µM (inactive) and the GI50 [9] was 24 µM (inactive).

Reference: ChEMBL document CHEMBL1201862, “PubChem BioAssay data set” (2004)
